Patent US10688077B2, “Inflammasome activation in myelodysplastic syndromes” (H. Lee Moffitt Cancer Center and Research Institute, Inc., priority 2015, dated 2020)
Each block holds one compound with its values, some of them ahead of it.

Legend:
[1] = system: SF3B1-K700E mutant-expressing BM cells; test: Nuclear β-catenin confocal microscopy, SF3B1-K700E BM cells; type: cell-based, mice; conditions: treated 24 hours
Protocol: (§1) MDS and normal donor BM-MNC and mouse BM cells were stained with 30×FAM-FLICA® Caspase-1 solution at a ratio of 1:30 for 2 hours at 37° C. Cells were washed and cytospins were generated using a 5 minutes centrifugation at 450 rpm. Slides were fixed at 37° C. for 10 minutes using BD Cytofix Fixation Buffer (BD Biosciences), and subsequently washed using PBS. Cells were permeabilized with 0.1% Triton X-100/2% BSA in PBS for 15 minutes at room temperature. After washing with PBS, cells were blocked using 2% BSA in PBS for 30 minutes at room temperature, and washed again. Cells were incubated with the appropriate primary antibody overnight (1:400 for NLRP3, 1:20 for β-catenin) at 4° C. The next day, cells were washed with PBS and incubated with the appropriate secondary antibodies (1:500) for 1 hour at room temperature. After washing, cells were covered with ProLong Gold Antifade Reagent with DAPI prior to the addition of a coverslip (Life Technologies). Co-localization of a-caspase-1 with NLRP3 inflammasome complexes was assessed using a Leica TCS SP5 AOBS Laser Scanning Confocal microscope (Leica Microsystems). Analysis of the inflammasome images was performed with Definiens Developer 2.0 (Definiens AG). The software was used to segment cells based on brightness and size thresholds, followed by a watershed segmentation algorithm. […]

[2] = system: U2AF1 S34F mutant expressing TF-1 cells; test: Nuclear β-catenin confocal microscopy in U2AF1-S34F mutant cells; type: cell-based; conditions: treated 24 hours prior to staining
[3] = system: SF3B1-K700E mutant-expressing BM cells; test: ASC staining to detect inflammasome formation by flow cytometry, SF3B1-K700E BM cells; type: cell-based, mice; conditions: treated 24 hours
Protocol: Staining was carried out as described ([…], et al. J Immunol. 2015 194(1):455-62). Briefly, cell pellets were resuspended in 1 mL of prewarmed BD Permeabilization Buffer III, and incubated on ice for 30 minutes. Cells were washed 2× with staining buffer. Following washing, cells were stained with rabbit-anti-ASC primary antibodies at a 1:1500 dilution and incubated for 90 minutes. Cells were washed, stained with secondary antibodies at a dilution of 1:1500, and incubated for 45 minutes. Cells were washed, and sample acquisitions were carried out using a BD LSR II flow cytometer and FACSDiva software.

[4] = system: SF3B1-K700E-expressing mutant BM cells; test: ROS detection by flow cytometry, SF3B1-K700E BM cells; type: cell-based, mice
From the text: (§2) ROS were detected using CM-H2DCFDA and CellROX® Deep Red Reagent according to manufacturer's protocol (Life Technologies).

[5] = system: U937 cells; test: ROS detection by flow cytometry in U937 cells; type: cell-based; conditions: 5 μg/mL, 24 hours, compared to untreated cells
From the text: as §2

[6] = system: U937 cells; test: Pore formation, ethidium bromide uptake in U937 cells; type: cell-based; conditions: 5 μg/mL rhS100A9, 12.5 μg/mL ethidium bromide
[7] = system: U937 cells; test: S100A9 flow cytometry experiments in U937 cells (a-caspase-1/annexin-V); type: cell-based
Protocol: Monocytic U937 cells were treated with the indicated concentrations of rhS100A9 for 24 hours, or with 5 μg/mL rhS100A9 for the indicated time points. Subsequently, cells were stained with 30×FAM-FLICA® Caspase-1 solution at a ratio of 1:30 for 2 hours at 37° C. Cells were washed, resuspended in 1× binding buffer, and stained with Annexin-V:PE at a dilution of 1:30 for 15 minutes at room temperature. 1× binding buffer was added to a final volume of 350 μL. Sample acquisitions were carried out using a BD FACSCalibur flow cytometer (BD Biosciences). Data were analyzed using FlowJo 9.7.5 software.

[8] = system: normal BM-MNC; test: qPCR of pyroptosis-associated genes in normal BM-MNC treated with rhS100A9; type: cell-based, human; conditions: 1 μg/mL, 24 hours, n=2
Protocol: PCR RNA was isolated from BM-MNC using the RNeasy Mini Kit (Qiagen). cDNA was produced using the iScript cDNA Synthesis Kit (Bio-Rad). Sequences for primers can be found in Table 1. GAPDH mRNA was used for transcript normalization. cDNA was amplified using the iQ SYBR Green Supermix and the CFX96 Real-Time PCR Detection System (Bio-Rad). PCR conditions were as follows: 10 minutes at 95° C., followed by 40 cycles of amplification (15 seconds at 95° C. and 1 minute at 60° C.). Relative gene expression was calculated using the […] method.

[9] = system: normal BM-MNC; test: Nuclear β-catenin confocal microscopy in normal BM-MNC; type: cell-based, human
Protocol: as §1

[10] = system: U937 cells; test: NLRP3 inflammasome confocal microscopy in U937 cells; type: cell-based; conditions: 5 μg/mL, 24 hours
[11] = system: BM cells isolated from WT mice; test: a-caspase-1/NLRP3 confocal microscopy in WT mouse BM cells treated with rhS100A9; type: cell-based; conditions: 5 μg/mL, 24 hours
Protocol: (§3) MDS and normal donor BM-MNC and mouse BM cells were stained with 30×FAM-FLICA® Caspase-1 solution at a ratio of 1:30 for 2 hours at 37° C. Cells were washed and cytospins were generated using a 5 minutes centrifugation at 450 rpm. Slides were fixed at 37° C. for 10 minutes using BD Cytofix Fixation Buffer (BD Biosciences), and subsequently washed using PBS. Cells were permeabilized with 0.1% Triton X-100/2% BSA in PBS for 15 minutes at room temperature. After washing with PBS, cells were blocked using 2% BSA in PBS for 30 minutes at room temperature, and washed again. Cells were incubated with the appropriate primary antibody overnight (1:400 for NLRP3, 1:20 for β-catenin) at 4° C. The next day, cells were washed with PBS and incubated with the appropriate secondary antibodies (1:500) for 1 hour at room temperature. After washing, cells were covered with ProLong Gold Antifade Reagent with DAPI prior to the addition of a coverslip (Life Technologies). Co-localization of a-caspase-1 with NLRP3 inflammasome complexes was assessed using a Leica TCS SP5 AOBS Laser Scanning Confocal microscope (Leica Microsystems). Analysis of the inflammasome images was performed with Definiens Developer 2.0 (Definiens AG). The software was used to segment cells based on brightness and size thresholds, followed by a watershed segmentation algorithm. Intensity values and Pearson's correlation coefficient were extracted from the segmented cells. For β-catenin image analysis, confocal images were imported into Definiens Tissue Studio v3.0, 64 Dual in .tif format. Cells were separated from background using the RGB thresholds. Nuclei were identified by setting thresholds in the DAPI channel. Typical cells averaged 60 microns. The red intensity (β-catenin) in the nucleus and cytoplasm was established by setting thresholds to low, medium and high in the red channel on a scale of 0-255 in the red channel.

[12] = system: normal BM-MNC; test: a-caspase-1/NLRP3 confocal microscopy in normal BM-MNC treated with rhS100A9; type: cell-based, human; conditions: 5 pig/mL rhS100A9, 24 hours
Protocol: as §3

[13] = system: U937 cells; test: Nuclear β-catenin confocal microscopy in U937 cells; type: cell-based; conditions: 5 μg/mL, 24 hours, compared to untreated cells
[14] = system: U937 cells; test: Comet assay (DNA damage) in U937 cells; type: cell-based; conditions: 5 μg/mL, 24 hours, compared to untreated cells
Protocol: Monocytic U937 cells were treated with 5 μg/mL rhS100A9 for 24 hr.
DNA damage was measured by single cell gel electrophoresis using alkaline CometAssay® according to manufacturer's protocol (Trevigen Inc.).

Compound: c1ccc2c(c1)[I+]c1ccccc1-2 [DPI]
- percentage of cells with elevated levels of nuclear β-catenin [1]: significantly reduced
- β-catenin activation (nuclear β-catenin) [2]: effectively reduced β-catenin activation
- inflammasome formation (ASC oligomerization) [3]: significantly reduced
- ROS MFI [4]: extinguished below the level of WT controls
- mean percentage of ROS+ cells [4]: extinguished below the level of WT controls

- a-caspase-1 levels induced [12]: 2.5 fold
- formation of NLRP3 inflammasomes induced [12]: 2.9 fold
- NLRP3 levels induced ([12]; p=0.064): 47.1 fold
Compound: rhS100A9: recombinant human S100A9, DAMP/alarmin protein, TLR4 and CD33 ligand
- increase in the mean percentage of ROS-positive cells [5]: 2.9 fold
- uptake of ethidium bromide [6]: rapid and substantial uptake
- activation of caspase-1 ([7]; 5 μg/mL, over time): time-dependent increase
- fraction of pyroptotic cells ([7]; increasing concentrations, 24 hours): concentration-dependent increase
- expression of pyroptosis-associated genes [8]: significantly up-regulated
- levels of nuclear β-catenin ([9]; 5 μg/mL, 24 hours, compared to controls): elevated levels
- levels of NLRP3 inflammasome complexes [10]: markedly increased
- inflammasome complexes ([11]; p=0.023): marked induction
- MFI of NLRP3 ([11]; versus controls, p=0.017): significantly increased
- MFI of a-caspase-1 ([11]; versus controls, p=7.5×10^−3): significantly increased
- levels of nuclear (activated) β-catenin [13]: marked increases
- increase in DNA damage [14]: 4.1 fold

Compound: CC(=O)N[C@@H](CS)C(=O)O [NAC, N-acetylcysteine]
- S100A9-triggered nuclear translocation of β-catenin ([9]; S100A9 treated normal BM-MNC): abolished
- percentage of cells with elevated levels of nuclear β-catenin [1]: significantly reduced
- β-catenin activation (nuclear β-catenin) [2]: effectively reduced β-catenin activation
- inflammasome formation (ASC oligomerization) [3]: significantly reduced
- ROS MFI [4]: extinguished below the level of WT controls
- mean percentage of ROS+ cells [4]: extinguished below the level of WT controls
